Test results published in patent US20170354617A1, “METHOD OF TREATING OR PREVENTING OSTEOPOROSIS” (Research Foundation of the City University of New York, priority 2016, published 2017).

Tests used:
rats = conditions: injected at a dose of 1 mg per kg; cited from earlier work
[1] = test system: estrogen-deficient (OVX) mice, post-menopausal type bone loss; assay: Ovariectomy (OVX) estrogen-depletion bone loss prevention in mice; assay type: in vivo
Text: Young adult mice were subjected to surgical ovariectomy (OVX) to deplete estrogen. This is widely accepted model for inducing post-menopausal type bone loss. It is the standard used by pharmaceutical companies in preclinical trials and is required by the FDA to confirm efficacy of an agent in preventing bone loss. Seven sham control mice received a surgical incision and wound closure but ovaries were left intact. Mice were return to their cages after surgery. Six “MB” mice received methylene blue in the cage water (0.2% in cage water supply starting 24 hours before surgery) which they were allowed to consume ad libitum for the duration of the study (three months); the remainder of the mice received normal cage water. Mice were sacrificed at three months post-OVX and bones were examined using microCT. The results are depicted in FIG. 2A and FIG. 2B which show bone changes with estrogen loss (OVX) were prevented by systemic treatment with methylene blue (MB). FIG. 2B is a graph of Bone Volume over Total Volume (BV/TV) for the groups of mice.

[2] = test system: chronic renal calculus disease; conditions: 65 mg taken three times a day; cited from earlier work
[3] = test system: aged mouse femur, age-related bone loss; assay: Age-related (Type 2) osteoporosis in aged mice, one year treatment; assay type: in vivo
Procedure: A one year old mouse is biologically similar to a 45-50 year-old human. Starting at 1 year of age, methylene blue was administered in the cage water supply (0.2% by weight) for one year to three male mice. Control mice received normal water. Animals were free to consume water and food ad libitum. Bones were examined when the mice were two years old, which is similar to a 75-80 year-old person.
FIG. 3A is a micro-Xray image of aged mouse femur from mouse with no treatment. Large holes or pores are clearly seen in the bone, as is thinning of the bone cortex. This is normal age-related osteoporosis.
FIG. 3B is a micro-Xray image of aged mouse femur from mouse after one year duration methylene blue treatment. No increases in porosity or cortex thinning are seen.

[4] = test system: bipolar manic-depressive patients; conditions: 300 mg per day for one year; cited from earlier work

CN(C)c1ccc2nc3ccc(=[N+](C)C)cc-3sc2c1 [methylene blue]
Brain oxidative metabolism and memory retention (rats): improved
Bone loss, Bone Volume over Total Volume (BV/TV) ([1]; 0.2% in cage water ad libitum, three months post-OVX, microCT of distal femur, OVX without treatment approx. 40% reduction in bone volume): almost completely prevented
Bone mechanical property ([1]; mice model of estrogen removal): maintained
Bone mineral density ([1]; mice model of estrogen removal): maintained
Cancellous bone loss after estrogen removal ([1]; mice model of estrogen removal): prevent cancellous bone loss
Osteocyte apoptosis ([1]; mice model of estrogen removal): prevent osteocyte apoptosis
Oxidative stress in bone cells ([1]; mice model of estrogen removal): protect bone cells from oxidative stress
Management of chronic renal calculus disease [2]: useful
Bone porosity compared to bones from control mice ([3]; 0.2% by weight in cage water for one year from 1 year of age, male mice, femur examined at two years old, FIG. 4): about half
Cortex thinning (micro-Xray image) ([3]; 0.2% by weight in cage water for one year, aged mouse femur, FIG. 3B): prevented the cortex or shell of the bone from thinning
Depression compared with placebo [4]: significantly less depressed
